Earlier results on four compounds are cited in patent US20070232672A1, “Pharmaceutical Composition And Method For Treating Neurodegenerative Disorders” (Myriad Genetics, Incorporated, priority 2004, published 2007).

The conditions of data set [1]: for efficacy for treating AD: clinical trial (Aisen et al., Reines et al.), rofecoxib at 25 mg daily.
In data set [2] the test system is Aβ42. As to conditions: transgenic mouse model, Koo et al.
For data set [3] the following is noted: 50 mg and 100 mg doses, human subjects, Lotsch et al.
The subject of data set [4] is COX.
The subject of data set [5] is Aβ42. As to conditions: CHO cells, Koo et al.
The conditions of data set [6]: Scali et al.
The conditions of data set [7]: patients having mild cognitive impairment.

Like-named read-outs stand apart in the source and are kept apart here.

For `CC12CC3CC(C)(C1)CC(N)(C3)C2` [memantine], the “efficacy in treating mild-to-moderate AD” value in data set [1] (mild-to-moderate AD) is on record as “showed efficacy”.

Regarding `COc1ccc2cc([C@H](C)C(=O)O)ccc2c1` [Naproxen], in data set [1], the “efficacy for treating AD” value is “failed to show efficacy”.

With `C[C@@H](C(=O)O)c1ccc(-c2ccccc2)c(F)c1` [(R)-2-(2-fluoro-4-biphenylyl)propionic acid], the Aβ42 lowering result in data set [2] and in data set [5] was “lower Aβ42” each time. Also, the analgesic effect result in data set [3] is listed as “produced an analgesic effect”. For the same compound, the “inhibition of COX activity” value in data set [4] is “negligibly inhibits COX activity”.

Turning to `CS(=O)(=O)c1ccc(C2=C(c3ccccc3)C(=O)OC2)cc1` [rofecoxib], the neuroprotection entry in data set [6] is on record as “provides neuroprotection”. Further, the “efficacy for treating AD” value in data set [1] is recorded as “failed to show efficacy”. The “prevention of the development of Alzheimer's disease” value in data set [7] (large prevention trial) is recorded as “failed to prevent the development of Alzheimer's disease”. The “patients who developed AD” value in data set [7] (placebo 4.5%) is listed as 6.4%.
